Measured values from patent US20180228787A1, “AMELIORATION OF CERTAIN DEFICIENCIES DUE TO STROKE” (NEURALSTEM, INC., priority 2017, published 2018).

Experiments:
Format in all cases: in vivo, Sprague-Dawley rats
[1] = test system: middle cerebral artery occlusion (MCAo) stroke rats; assay: Bederson neurological exam after MCAo stroke
Text: (§1) A. Stroke surgery. Sixty (60) adult Sprague-Dawley, male rats (weighing around 250 g at beginning of the study) received experimental stroke surgery using the middle cerebral artery occlusion (MCAo) model, under aseptic conditions. […] were anesthetized with 1-2% isoflurane in nitrous oxide/oxygen (69%/30%) using a face mask and checked for pain reflexes. Under deep anesthesia, animals underwent the MCAo surgery which entails insertion of a filament through the carotid artery to reach the junction of the MCA, thus blocking the blood flow from the common carotid artery, as well as from the circle of Willis.
The right common carotid artery was identified and isolated through a ventral midline cervical incision and suture size 4-0, made of sterile, non-absorbable suture (Ethicon, Inc.), with the diameter of the suture tip tapered to 24 to 26-gauge size using a rubber cement. About 15 to 17 mm of the filament was inserted from the junction of the external and internal carotid arteries to block the MCA. The right MCA was occluded for one hour. A heating pad and a rectal thermometer allowed maintenance of body temperature within normal limits (37±0.3° C.).
To further ensure similar degree of stroke insults, physiological parameters including PaO2, PaCO2, and plasma pH measurements were monitored. Based on laser Doppler readouts and behavioral tests after MCAs, a total of 48 animals were enrolled in this study.
B. Drug Treatment. In the treated subjects, 30 mg/kg of the phosphate of formula (2) wherein R^1 is isoamyl (NSI-189 H3PO4 (mol. wt. 464.50)), 99.8% pure based on the weight of the API (active pharmaceutical ingredient) base without the weight of phosphate salt was administered orally in 0.03N HCl in deionized water (n=24) or vehicle (n=24) was administered following MCAo 6 hours after stroke, and daily for the next 12 weeks.
About one hour after the EBST, the Bederson neurological exam was conducted using 3 tests: (1) forelimb retraction—measuring the ability of the rat to replace the forelimb after it was displaced laterally by 2 to 3 cm, graded from 0 (immediate replacement) to 3 (replacement after several seconds or no replacement); (2) beam walking ability, graded 0 for a rat that readily traversed a 2.4-cm-wide, 80-cm-long beam to 3 for a rat unable to stay on the beam for 10 seconds; and (3) bilateral forepaw grasp—the ability to hold onto a 2-mm-diameter steel rod, graded 0 for a rat with normal forepaw grasping behavior to 3 for a rat unable to grasp with the forepaws. The scores from all 3 tests, which were done over a period of about 15 minutes on each assessment day, were added to give a mean neurologic deficit score (maximum possible score, 9 points divided by 3 tests=3). […]

[2] = test system: Ki67; assay: Ki67 immunohistochemistry of stroke brains
Text: (§2) At scheduled intervals post-stroke (either 12 weeks or 24 weeks), rats of Example 1 were randomly euthanized (n=12 per treatment), perfused by transcardial perfusion with 4% paraformaldehyde. The brains were dissected, post-fixed for overnight in 4% paraformaldehyde, then subsequently immersed in 30% sucrose until immunohistochemical processing. Brain section preparations were designed to identify stroke-induced cerebral infarction and NSI-189-induced neurogenic effects.
Brains were embedded in gelatin blocks and sectioned on a freezing sliding microtome at 40-μm. The sections were washed in PBS 5×10 min to remove the antigen preservative solution. Endogenous peroxidase was blocked using 3% H2O2 for 15 minutes. The sections were then incubated in 1% Triton-X100 for 30 minutes, and then blocked with 5% Normal Horse Serum (NETS) for 1 hour. The sections were incubated with the primary antibody that binds Ki67 (1:2000, Cat. #: ab16667, Abcam, CA) or that binds MAP2 (1:2000, Cat. #: AB5622, Millipore, MA) overnight, rinsed 5×5 min in PBS prior to pre-incubation in 5% NHS for 1 hour, then incubated with the secondary antibody which corresponded to the respective host of the primary antibody (Donkey or Rabbit, 1:2000, Cat. #: 711-066-152, Jackson ImmunoResearch Laboratories, Inc, PA) for 90 minutes. After rinsing in PBS (5×5 min), the sections were incubated with peroxidase-conjugated streptavidin (1:5000, Cat. #: 016-030-084, Jackson ImmunoResearch Laboratories, Inc, PA) with 1% NHS. […]
The slides were imaged and reviewed under Nikon bright-field microscope (Nikon, Tokyo, Japan). The regions of interest (ROIs), including the cerebral cortex, the hippocampal subfields (CA1+CA2, CA3 and DG) were contoured rostro-caudally and the immunoreactivity of the MAP2 density was measured by Nikon NIS-Element software and Ki67+ cells counted rostro-caudally along the subgranular zone (SGZ) by Image-Pro Premier (v10.10), respectively. […] After completion, quantitative data were extracted and transferred for the statistical analysis (Prism, GraphPad®, La Jolla, Calif.). […]

[3] = test system: MAP2; assay: MAP2 immunohistochemistry of stroke brains
Text: as §2
Brains were embedded in gelatin blocks and sectioned on a freezing sliding microtome at 40-μm. The sections were washed in PBS 5×10 min to remove the antigen preservative solution. Endogenous peroxidase was blocked using 3% H2O2 for 15 minutes. The sections were then incubated in 1% Triton-X100 for 30 minutes, and then blocked with 5% Normal Horse Serum (NETS) for 1 hour. The sections were incubated with the primary antibody that binds Ki67 (1:2000, Cat. #: ab16667, Abcam, CA) or that binds MAP2 (1:2000, Cat. #: AB5622, Millipore, MA) overnight, rinsed 5×5 min in PBS prior to pre-incubation in 5% NHS for 1 hour, then incubated with the secondary antibody which corresponded to the respective host of the primary antibody (Donkey or Rabbit, 1:2000, Cat. #: 711-066-152, Jackson ImmunoResearch Laboratories, Inc, PA) for 90 minutes. After rinsing in PBS (5×5 min), the sections were incubated with peroxidase-conjugated streptavidin (1:5000, Cat. #: 016-030-084, Jackson ImmunoResearch Laboratories, Inc, PA) with 1% NHS. The sections were washed 5×5 min in PBS after the streptavidin, prior to developing with DAB (3,3′-Diaminobenzidine Tetrahydrochloride Hydrate, Cat #: 1001306853, Sigma-Aldrich, St. Louis, Mo.) and Nickel chloride. After DAB processing, the sections were rinsed, mounted, and air-dried overnight. The slides were dehydrated, and coverslipped with DPX Mounting Medium (Cat #: 13512, Electron Microscopy Sciences, Hatfield, Pa.).
The slides were imaged and reviewed under Nikon bright-field microscope (Nikon, Tokyo, Japan). The regions of interest (ROIs), including the cerebral cortex, the hippocampal subfields (CA1+CA2, CA3 and DG) were contoured rostro-caudally and the immunoreactivity of the MAP2 density was measured by Nikon NIS-Element software and Ki67+ cells counted rostro-caudally along the subgranular zone (SGZ) by Image-Pro Premier (v10.10), respectively. The slides were coded and blinded to the analysts during the course of the study. After completion, quantitative data were extracted and transferred for the statistical analysis (Prism, GraphPad®, La Jolla, Calif.). The data values between groups were compared using ANOVA with Tukey's post-hoc tests (p<0.05).

[4] = test system: middle cerebral artery occlusion (MCAo) stroke rats; assay: Elevated body swing test (EBST) after MCAo stroke
Text: as §1
The right common carotid artery was identified and isolated through a ventral midline cervical incision and suture size 4-0, made of sterile, non-absorbable suture (Ethicon, Inc.), with the diameter of the suture tip tapered to 24 to 26-gauge size using a rubber cement. […]
To further ensure similar degree of stroke insults, physiological parameters including PaO2, PaCO2, and plasma pH measurements were monitored. Based on laser Doppler readouts and behavioral tests after MCAs, a total of 48 animals were enrolled in this study. […]
C. […] The direction of the swing, either left or right, was counted once the animals head moves sideways approximately 10 degrees from the midline position of the body. […]

[5] = 12 weeks and 24 weeks post-stroke, vs vehicle, p's>0.05
[6] = vs vehicle-treated stroke animals

In the case of `CC(C)CCNc1ncccc1C(=O)N1CCN(Cc2ccccc2)CC1.O=P(O)(O)O` [NSI-189 phosphate], the “restoring motor skills in the Bederson neurological exam” value ([1]; MCAo rats, 30 mg/kg orally 6 hours after stroke and daily for 12 weeks, vs vehicle) is reported as “successful in restoring motor skills”, the “performance in the Bederson neurological exam (FIG. 2)” value ([1]; MCAo rats, 30 mg/kg orally daily for 12 weeks, after 6 months) is reported as “performance approaching that of control even after 6 months” and the “control of motor skills compared to vehicle animals” value ([1]; day 3 post stroke, p<0.05) is reported as “showed control of motor skills as early as day 3 post stroke”. For the same compound, the “improvement of motor skills over time compared to untreated animals” value ([1]; during 12 weeks of drug treatment and the next 12 weeks after withdrawal, p<0.05) was “continued to improve over time compared to untreated animals”, the “Ki67 level in hippocampal subgranular zone (SGZ)” value [2, 5] was “comparable levels of Ki67” and the “Ki67 level in subventricular zone (SVZ)” value [2, 5] was “comparable levels of Ki67”. The “Ki67 staining (cell proliferation) in the peri-infarct cortex” value [2, 6] was “increased Ki67”, the “MAP2 density in the cerebral cortex” value ([3]; 12-week period, vs vehicle, p's<0.05) was “amplified MAP2 density” and the “MAP2 density in the hippocampus” value ([3]; 12-week time point, vs vehicle, p's<0.05) was “increased MAP2 density”. The “cerebral infarction by MAP2 expression in the cortex and striatum” value [3, 5] was “did not significantly differ between groups”, the “MAP2 density in the cerebral cortex” value ([3]; 24-week time point, vs vehicle) was “only detected at the 12-week period” and the “MAP2 density in the hippocampus” value ([3]; 24-week time point, vs vehicle, p's<0.05) was “increased MAP2 density”. The “MAP2 staining (neurogenesis) in the peri-infarct cortex” value [3, 6] was “increased Ki67 and MAP2 staining”, the “restoring motor skills in the EBST” value ([4]; 30 mg/kg orally 6 hours after stroke and daily for 12 weeks, vs vehicle) was “successful in restoring motor skills” and the “performance in the EBST (FIG. 1)” value ([4]; 30 mg/kg orally daily for 12 weeks, controls showed no such recovery) was “recovered performance in the EBST almost to baseline levels”.
